14 compounds from US20170240566A1, “AMINO-SUBSTITUTED ANNULATED PYRIMIDINES AND USE THEREOF” (Bayer Pharma Aktiengesellschaft, priority 2014, published 2017) can be followed below.

SMILES strings stand for the structures. Where a name gives a salt, the structure may show the parent alone.

Assay [1] deals with recombinant guanylate cyclase reporter cell line. Kind of assay: Effect on a recombinant guanylate cyclase reporter cell line. The class given is cell-based. As to conditions: minimum effective concentration; in some cases means of individual determinations; read-out: MEC. As for the experimental part: B-2. Effect on a Recombinant Guanylate Cyclase Reporter Cell Line
The cellular activity of the compounds of the invention is determined using a recombinant guanylate cyclase reporter cell line, as described in F. Wunder et al., Anal. Biochem. 339, 104-112 (2005). Representative values (MEC=minimum effective concentration) for the compounds of the invention are shown in the table below (Table 1; in some cases as means of individual determinations): […]

The target in assay [2] is T1, human phosphodiesterase 5 (PDE 5) (Homo sapiens, UniProt O76074).
T1 construct: PDE 5 preparations are obtained from human platelets by disruption; from tissue; host or cells: human platelets
The experiment in a line: Inhibition of human phosphodiesterase 5 (PDE 5). The class given is biochemical. As to conditions: PDE 5 preparation from human platelets; in some cases means of individual determinations. As for the experimental part: B-3. Inhibition of human phosphodiesterase 5 (PDE 5)
PDE 5 preparations are obtained from human platelets by disruption (Microfluidizer®, 800 bar, 3 passes), followed by centrifugation (75 000 g, 60 min, 4° C.) and ion exchange chromatography of the supernatant on a Mono Q 10/10 column (linear sodium chloride gradient, elution with a 0.2-0.3M solution of sodium chloride in buffer (20 mM Hepes pH 7.2, 2 mM magnesium chloride). Fractions having PDE 5 activity are combined (PDE 5 preparation) and stored at −80° C.
To determine their in vitro action on human PDE 5, the test substances are dissolved in 100% DMSO and serially diluted. Typically, dilution series (1:3) from 200 μM to 0.091 μM are prepared (resulting final concentrations in the test: 4 μM to 0.0018 μM). In each case 2 μl of the diluted substance solutions are placed into the wells of microtitre plates (Isoplate-96/200W; Perkin Elmer). Subsequently, 50 μl of a dilution of the above-described PDE 5 preparation are added. The dilution of the PDE 5 preparation is chosen such that during the later incubation less than 70% of the substrate are converted (typical dilution: 1:100; dilution buffer: 50 mM tris/hydrochloric acid pH 7.5, 8.3 mM magnesium chloride, 1.7 mM EDTA, 0.2% BSA). The substrate, [8-^3H] cyclic guanosine-3′,5′-monophosphate (1 μCi/μl; Perkin Elmer), is diluted 1:2000 with assay buffer (50 mM tris/hydrochloric acid pH 7.5, 8.3 mM magnesium chloride, 1.7 mM EDTA) to a concentration of 0.0005 μμCi/μl. By addition of 50 μl (0.025 μCi) of the diluted substrate, the enzyme reaction is finally started. The test mixtures are incubated at room temperature for 60 min and the reaction is stopped by adding 25 μl of a suspension of 18 mg/ml yttrium scintillation proximity beads in water (phosphodiesterase beads for SPA assays, RPNQ 0150, Perkin Elmer). The microtitre plates are sealed with a film and left to stand at room temperature for 60 min. Subsequently, the plates are analysed for 30 s per well in a Microbeta scintillation counter (Perkin Elmer). IC50 values are determined using the graphic plot of the substance concentration against percentage PDE 5 inhibition.

A word on the IC50: it is the point on the concentration scale where inhibition reaches its midpoint. The low end stands for higher potency, the high end for lower potency. In the case of `Cc1nc2c(cc1F)c(-c1nc(NCC(N)(CF)CF)c3c(n1)NC(=O)C3(C)C(F)(F)F)nn2Cc1ncccc1F` (single isomer, unassigned; ent-4) [Example 16, ent-4-{[2-Amino-3-fluoro-2-(fluoromethyl)propyl]amino}-2-{5-fluoro-1-[(3-fluoropyridin-2-yl)methyl]-6-methyl-1H-pyrazolo[3,4-b]pyridin-3-yl}-5-methyl-5-(trifluoromethyl)-5,7-dihydro-6H-pyrrolo[2,3-d]pyrimidin-6-one (Enantiomer A)], the minimal effective concentration in assay [1] worked out at 0.07 µM. In assay [2], this compound gave an IC50 of 57 nM.
`Cc1nc2c(cc1F)c(-c1nc(NCC(N)(CF)CF)c3c(n1)NC(=O)C3(C)C(F)(F)F)nn2Cc1c(F)ccc(F)c1F` (single isomer, unassigned; ent-4) [Example 14, ent-4-{[2-Amino-3-fluoro-2-(fluoromethyl)propyl]amino}-2-[5-fluoro-6-methyl-1-(2,3,6-trifluorobenzyl)-1H-pyrazolo[3,4-b]pyridin-3-yl]-5-methyl-5-(trifluoromethyl)-5,7-dihydro-6H-pyrrolo[2,3-d]pyrimidin-6-one (Enantiomer B)]: the minimal effective concentration in assay [1] amounted to 0.1 µM. Also, in assay [2], the IC50 worked out at 100 nM.
Take `Cc1nc2c(cc1F)c(-c1nc(NCC(N)(CF)CF)c3c(n1)NC(=O)C3(C)C(F)(F)F)nn2Cc1ncccc1F` (racemic) [Example 15, rac-4-{[2-Amino-3-fluoro-2-(fluoromethyl)propyl]amino}-2-{5-fluoro-1-[(3-fluoropyridin-2-yl)methyl]-6-methyl-1H-pyrazolo[3,4-b]pyridin-3-yl}-5-methyl-5-(trifluoromethyl)-5,7-dihydro-6H-pyrrolo[2,3-d]pyrimidin-6-one]: the minimal effective concentration in assay [1] is 0.1 µM. In addition, half-maximal inhibition in assay [2] (IC50) was put at 100 nM.
For `Cc1nc2c(cc1F)c(-c1nc(NCC(N)(CF)CF)c3c(n1)NC(=O)C3(C)C(F)(F)F)nn2Cc1ccccc1F` (single isomer, unassigned; ent-4) [Example 10, ent-4-{[2-Amino-3-fluoro-2-(fluoromethyl)propyl]amino}-2-[5-fluoro-1-(2-fluorobenzyl)-6-methyl-1H-pyrazolo[3,4-b]pyridin-3-yl]-5-methyl-5-(trifluoromethyl)-5,7-dihydro-6H-pyrrolo[2,3-d]pyrimidin-6-one (Enantiomer A)], the minimal effective concentration in assay [1] is 0.2 µM. In assay [2], this compound registered an IC50 of 290 nM.
For `Cc1nc2c(cc1F)c(-c1nc(NCC(N)(CF)CF)c3c(n1)NC(=O)C3(C)C(F)(F)F)nn2Cc1cccc(F)c1F` (single isomer, unassigned; ent-4) [Example 8, ent-4-{[2-Amino-3-fluoro-2-(fluoromethyl)propyl]amino}-2-[1-(2,3-difluorobenzyl)-5-fluoro-6-methyl-1H-pyrazolo[3,4-b]pyridin-3-yl]-5-methyl-5-(trifluoromethyl)-5,7-dihydro-6H-pyrrolo[2,3-d]pyrimidin-6-one (Enantiomer B)] the same measures were 0.1 µM and 120 nM.
With `Cc1nc2c(cc1F)c(-c1nc(NCC(N)(CF)CF)c3c(n1)NC(=O)C3(C)C(F)(F)F)nn2Cc1cccc(F)c1F` (single isomer, unassigned; ent-4) [Example 7, ent-4-{[2-Amino-3-fluoro-2-(fluoromethyl)propyl]amino}-2-[1-(2,3-difluorobenzyl)-5-fluoro-6-methyl-1H-pyrazolo[3,4-b]pyridin-3-yl]-5-methyl-5-(trifluoromethyl)-5,7-dihydro-6H-pyrrolo[2,3-d]pyrimidin-6-one (Enantiomer A)], the minimal effective concentration in assay [1] is given as 0.3 µM. The compound further gave an IC50 in assay [2] of 120 nM.
In the case of `CC1(C(F)(F)F)C(=O)Nc2nc(-c3nn(Cc4ncccc4F)c4ncc(F)cc34)nc(NCC(N)(CF)CF)c21` (single isomer, unassigned; ent-4) [Example 20, ent-4-{[2-Amino-3-fluoro-2-(fluoromethyl)propyl]amino}-2-{5-fluoro-1-[(3-fluoropyridin-2-yl)methyl]-1H-pyrazolo[3,4-b]pyridin-3-yl}-5-methyl-5-(trifluoromethyl)-5,7-dihydro-6H-pyrrolo[2,3-d]pyrimidin-6-one (Enantiomer B)], the minimal effective concentration in assay [1] came out at 0.65 µM. The IC50 in assay [2] stood at 120 nM.
With `CC1(C)C(=O)Nc2nc(-c3nn(Cc4ccccc4F)c4cc(Cl)ccc34)nc(NCC(N)(CF)CF)c21` [Example 21, 4-{[2-Amino-3-fluoro-2-(fluoromethyl)propyl]amino}-2-[6-chloro-1-(2-fluorobenzyl)-1H-indazol-3-yl]-5,5-dimethyl-5,7-dihydro-6H-pyrrolo[2,3-d]pyrimidin-6-one trifluoroacetate], the minimal effective concentration in assay [1] came to 0.3 µM.
For `CC1(C(F)(F)F)C(=O)Nc2nc(-c3nn(Cc4ncccc4F)c4ncc(F)cc34)nc(NCC(N)(CF)CF)c21` (racemic) [Example 18, rac-4-{[2-Amino-3-fluoro-2-(fluoromethyl)propyl]amino}-2-{5-fluoro-1-[(3-fluoropyridin-2-yl)methyl]-1H-pyrazolo[3,4-b]pyridin-3-yl}-5-methyl-5-(trifluoromethyl)-5,7-dihydro-6H-pyrrolo[2,3-d]pyrimidin-6-one], the minimal effective concentration in assay [1] was found to be 0.1 µM. The same compound had an IC50 in assay [2] of 100 nM.
For `Cc1nc2c(cc1F)c(-c1nc(NCC(N)(CF)CF)c3c(n1)NC(=O)C3(C)C(F)(F)F)nn2Cc1ncccc1F` (single isomer, unassigned; ent-4) [Example 17, ent-4-{[2-Amino-3-fluoro-2-(fluoromethyl)propyl]amino}-2-{5-fluoro-1-[(3-fluoropyridin-2-yl)methyl]-6-methyl-1H-pyrazolo[3,4-b]pyridin-3-yl}-5-methyl-5-(trifluoromethyl)-5,7-dihydro-6H-pyrrolo[2,3-d]pyrimidin-6-one (Enantiomer B)], the minimal effective concentration in assay [1] is 0.65 µM.
Consider `Cc1nc2c(cc1F)c(-c1nc(NCC(N)(CF)CF)c3c(n1)NC(=O)C3(C)C(F)(F)F)nn2Cc1c(F)ccc(F)c1F` (single isomer, unassigned; ent-4) [Example 13, ent-4-{[2-Amino-3-fluoro-2-(fluoromethyl)propyl]amino}-2-[5-fluoro-6-methyl-1-(2,3,6-trifluorobenzyl)-1H-pyrazolo[3,4-b]pyridin-3-yl]-5-methyl-5-(trifluoromethyl)-5,7-dihydro-6H-pyrrolo[2,3-d]pyrimidin-6-one (Enantiomer A)], for which the minimal effective concentration in assay [1] amounted to 0.3 µM. For the same compound, the IC50 in assay [2] was found to be 300 nM.
`Cc1nc2c(cc1F)c(-c1nc(NCC(N)(CF)CF)c3c(n1)NC(=O)C3(C)C)nn2Cc1c(F)ccc(F)c1F` [Example 3, 4-{[2-Amino-3-fluoro-2-(fluoromethyl)propyl]amino}-2-[5-fluoro-6-methyl-1-(2,3,6-trifluorobenzyl)-1H-pyrazolo[3,4-b]pyridin-3-yl]-5,5-dimethyl-5,7-dihydro-6H-pyrrolo[2,3-d]pyrimidin-6-one]: the minimal effective concentration in assay [1] turned out to be 0.03 µM. This compound also yielded an IC50 in assay [2] of 194 nM.
In the case of `Cc1nc2c(cc1F)c(-c1nc(NCC(N)(CF)CF)c3c(n1)NC(=O)C3(C)C(F)(F)F)nn2Cc1ccccc1F` (single isomer, unassigned; ent-4) [Example 11, ent-4-{[2-Amino-3-fluoro-2-(fluoromethyl)propyl]amino}-2-[5-fluoro-1-(2-fluorobenzyl)-6-methyl-1H-pyrazolo[3,4-b]pyridin-3-yl]-5-methyl-5-(trifluoromethyl)-5,7-dihydro-6H-pyrrolo[2,3-d]pyrimidin-6-one (Enantiomer B)], the minimal effective concentration in assay [1] is listed as 0.1 µM. The compound further had an IC50 in assay [2] of 390 nM.
Take `Cc1nc2c(cc1F)c(-c1nc(NCC(N)(CF)CF)c3c(n1)NC(=O)C3(C)C(F)(F)F)nn2Cc1cccc(F)c1F` (racemic) [Example 6, rac-4-{[2-Amino-3-fluoro-2-(fluoromethyl)propyl]amino}-2-[1-(2,3-difluorobenzyl)-5-fluoro-6-methyl-1H-pyrazolo[3,4-b]pyridin-3-yl]-5-methyl-5-(trifluoromethyl)-5,7-dihydro-6H-pyrrolo[2,3-d]pyrimidin-6-one]: in assay [1], the minimal effective concentration is 0.1 µM. Besides, inhibition in assay [2] was half-maximal at 32 nM (IC50).
